Test results reported in US6569834B1, “Elucidation and synthesis of antineoplastic tetrapeptide w-aminoalkyl-amides” (priority 1992, dated 2003).
In brackets after ≈: the same amount, converted by molar mass.

What was measured:
Format in all cases: cell-based
P-388 = assay: Cancer cell growth inhibition, murine P388 lymphocytic leukemia cell line; parameters: unit not given here; conditions: Mouse leukemia cell P-388
Description: (§1) The extraordinary inhibition of cell growth shown by the tetrapeptide w-aminoalkylamides 6a-d against six major types of human cancer and against the murine P388 lymphocytic leukemia cell line has been presented in Table I.

OVCAR-3 = assay: Human cancer cell growth inhibition, ovarian OVCAR-3
Description: (§2) Only two hundred years ago, many diseases ravaged humankind. Many of these diseases have been controlled or eradicated. In the development of the means to treat or control these diseases, work with the appropriate common experimental animals was of critical importance. With the various types of cancers, and with the HIV virus, such work is presently ongoing. The research for the treatment of various types of cancer is coordinated by the National Cancer Institute (NCI). NCI, as a government entity, has been charged with assisting anti-cancer research. To establish whether a substance has anti cancer activity, NCI has established a protocol. This protocol, which involves testing a substance against a cell line panel containing 60 human tumor cell lines, has been verified, and is accepted in scientific circles. This protocol, and the established statistical means of evaluating the results obtained therefrom have been amply described in the literature. See e.g. Principles & Practice of Oncology PPO Updates, Volume 3, Number 10, October 1989, by Michael R. Boyd, M. D., Ph.D., for a description of the protocol. The statistical analysis is explained in “Display and Analysis of Patterns of Differential Activity of Drugs Against Human Tumor Cell Lines: Development of Mean Graph and COMPARE Algorithm” Journal of the National Cancer Institute Reports Vol. 81, No. 14, Pg. 1088, July 14, 1989, by K. D. Paull et al. Both articles are incorporated herein by this reference as if fully set forth.
as §1

SF-295 = assay: Human cancer cell growth inhibition, CNS SF-295
Description: as §2, §1

A498 = assay: Human cancer cell growth inhibition, renal A498
Description: as §2, §1

NCI-460 = assay: Human cancer cell growth inhibition, Lung-NSC NCI-460
Description: as §2, §1

KM20L2 = assay: Human cancer cell growth inhibition, colon KM20L2
Description: as §2, §1

SK-MEL-3 = assay: Human cancer cell growth inhibition, melanoma SK-MEL-3
Description: as §2, §1

human cancer cell line = assay: Human cancer cell line activity compared to dolastatin 10

| Compound | Cancer cell growth inhibitory activity (P-388) | GI-50 (OVCAR-3) [µg/mL] | TGI (OVCAR-3) [ng/mL] | GI-50 (SF-295) [µg/mL] | TGI (SF-295) [ng/mL] | GI-50 (A498) [µg/mL] | TGI (A498) [ng/mL] | GI-50 (NCI-460) [µg/mL] | TGI (NCI-460) [ng/mL] | GI-50 (KM20L2) [µg/mL] | TGI (KM20L2) [ng/mL] | GI-50 (SK-MEL-3) [µg/mL] | TGI (SK-MEL-3) [ng/mL] | human cancer cell line activity as compared to dolastatin 10 (human cancer cell line) |
| --- | --- | --- | --- | --- | --- | --- | --- | --- | --- | --- | --- | --- | --- | --- |
| CC[C@H](C)[C@@H]([C@@H](CC(=O)N1CCC[C@H]1[C@H](OC)[C@@H](C)C(=O)NCCc1ccccn1)OC)N(C)C(=O)[C@@H](NC(=O)[C@H](C(C)C)N(C)C)C(C)C [Peptide 6a, [2S-[1[1R*(R*),2S*],2R*[1S*,2S*]]]-N,N-dimethyl-L-valyl-N-[2-methoxy-4-[2-[1-methoxy-2-methyl-3-oxo-3-[[2-(2-pyridyl)ethyl]amino]propyl]-1-pyrrolidinyl-1-(methylpropyl)-4-oxobutyl]-N-methyl-L-valineamide] | 0.000713 | 0.000039 | 0.21 (≈ 0.000299 µM) | 0.00035 | <10 | 0.00043 | <10 | 0.00024 | 0.8 (≈ 0.00114 µM) | 0.000062 | 1.1 (≈ 0.00156 µM) | 0.000065 | 0.77 (≈ 0.0011 µM) |  |
| CC[C@H](C)[C@@H]([C@@H](CC(=O)N1CCC[C@H]1[C@H](OC)[C@@H](C)C(=O)NCCN1CCOCC1)OC)N(C)C(=O)[C@@H](NC(=O)[C@H](C(C)C)N(C)C)C(C)C [Peptide 6b, [2S-[1[1R*(R*),2S*],2R*[1S*,2S*]]]-N,N-dimethyl-L-valyl-N-[2-methoxy-4-[2-[1-methoxy-2-methyl-3-oxo-3-[[2-(4-morpholino)ethyl]amino]propyl]-1-pyrrolidinyl-1-(methylpropyl)-4-oxobutyl]-N-methyl-L-valineamide] | 0.0736 | <0.0001 | <0.1 | <0.0001 | <0.1 | <0.0001 | <0.1 | <0.0001 | <0.1 | <0.0001 | <0.1 | <0.0001 | <0.1 |  |
| CC[C@H](C)[C@@H]([C@@H](CC(=O)N1CCC[C@H]1[C@H](OC)[C@@H](C)C(=O)NCCN(C)C)OC)N(C)C(=O)[C@@H](NC(=O)[C@H](C(C)C)N(C)C)C(C)C [Peptide 6c, [2S-[1[1R*(R*),2S*],2R*[1S*,2S*]]]-N,N-dimethyl-L-valyl-N-[2-methoxy-4-[2-[1-methoxy-2-methyl-3-oxo-3-[[2-dimethylamino-ethyl]amino]propyl]-1-pyrrolidinyl-1-(methylpropyl)-4-oxobutyl]-N-methyl-L-valineamide] | <0.1 | 0.0028 | 8.6 (≈ 0.0129 µM) | 0.0033 | <10 | 0.0025 | 5.6 (≈ 0.00837 µM) | 0.0051 | <10 | <0.01 | <10 | <0.01 | <10 |  |
| CC[C@H](C)[C@@H]([C@@H](CC(=O)N1CCC[C@H]1[C@H](OC)[C@@H](C)C(=O)NCCCN(C)C)OC)N(C)C(=O)[C@@H](NC(=O)[C@H](C(C)C)N(C)C)C(C)C [Peptide 6d, [2S-[1[1R*(R*),2S*],2R*[1S*,2S*]]]-N,N-dimethyl-L-valyl-N-[2-methoxy-4-[2-[1-methoxy-2-methyl-3-oxo-3-[[3-dimethylamino-propyl]amino]propyl]-1-pyrrolidinyl-1-(methylpropyl)-4-oxobutyl]-N-methyl-L-valineamide] | 0.881 | <0.01 | <10 | <0.01 | <10 | <0.01 | <10 | 0.0072 | <10 | <0.01 | <10 | <0.01 | <10 |  |
| R-Doe-isodolastatin 10 |  |  |  |  |  |  |  |  |  |  |  |  |  | did not show any significant difference |
